Assay [1] deals with T1, is-octβ2R T60^1.41P mutant (Ixodes scapularis, UniProt A0ACM8E5E8).
T1 sequence (A0ACM8E5E8 1-384 T39P): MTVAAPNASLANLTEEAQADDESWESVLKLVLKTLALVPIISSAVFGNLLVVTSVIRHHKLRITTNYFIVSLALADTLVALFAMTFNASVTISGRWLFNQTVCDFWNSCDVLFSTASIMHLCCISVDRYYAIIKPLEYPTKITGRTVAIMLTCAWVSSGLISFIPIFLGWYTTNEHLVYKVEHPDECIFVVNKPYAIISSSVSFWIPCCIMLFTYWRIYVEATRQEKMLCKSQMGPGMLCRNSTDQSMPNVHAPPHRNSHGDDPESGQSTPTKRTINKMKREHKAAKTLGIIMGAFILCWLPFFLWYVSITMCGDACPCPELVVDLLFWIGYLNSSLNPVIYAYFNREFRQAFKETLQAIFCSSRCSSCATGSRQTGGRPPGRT
As to the kind of experiment: TGFα shedding assay, amitraz-resistant mutant T60^1.41P. It is filed as cell-based. Conditions: Table S4. As to the method:
(§1) The TGFα shedding assay was performed as previously described ([28]). […] The cells were transfected using lipofectamine 2000 with plasmids encoding alkaline phosphatase–tagged TGFα (AP-TGFα) (2.5 ng/mL), is-octβ2Rs (1 ng/mL), and Gαq/s (0.5 ng/mL). After 24 h, the cells were washed with phosphate-buffered saline and resuspended in Hank's balanced salt solution (HBSS) (supplemented with 5 mM HEPES [pH 7.4]). The cells (90 μL/well) were plated in a 96-well plate and incubated with 10 μL of HBSS solution containing various concentrations of compounds for 1 h at 37 °C. Following centrifugation (200 × g, 2 min), 80 μL of the supernatant was transferred to a separate 96-well plate. Subsequently, 80 µL of 2× para-nitrophenyl phosphate (pNPP) buffer (containing 10 mM pNPP in 40 mM Tris–HCl [pH 9.5], 40 mM NaCl, and 10 mM MgCl2) was added to both the supernatant and cell-containing plates. The optical density at 405 nm of both plates was measured before and after a 1 h incubation at room temperature using a microplate reader (SpectraMax iD3, Molecular Devices, San Jose, CA, United States). AP-TGFα release was calculated using the following formulas:
(§2) ΔOD405=OD450(1h)−OD405(0h)AP−TGFαinsupernatant(%)=(ΔOD405Sup/[ΔOD450Sup+ΔOD405Cell])×125AP−TGFαrelease(%)=AP−TGFαinsupernatantunderastimulatedcondition(%)−AP−TGFαinsupernatantunderavehicle−treatedcondition
(§3) where OD405 (0 h) and […] represent the OD405 before and after a 1 h incubation, respectively, and OD405Sup and OD405Cell represent the OD405 of supernatant and cell plates, respectively. For all pharmacological analyses, nonlinear regression curve fitting was performed with a 3-parameter sigmoid model (Hill coefficient = 1) using Prism 8 (GraphPad Software, La Jolla, CA, United States).

The test system of assay [2] is is-octβ2R D110^3.32A mutant. The assay can be described thus: TGFα shedding assay, mutant D110^3.32A. It is filed as cell-based, Ixodes scapularis. As to conditions: Table S6. As to the method:
as §1
(§4) ΔOD405=OD450(1h)−OD405(0h)AP−TGFαinsupernatant(%)=(ΔOD405Sup/[ΔOD450Sup+ΔOD405Cell])×125AP−TGFαrelease(%)=AP−TGFαinsupernatantunderastimulatedcondition(%)−AP−TGFαinsupernatantunderavehicle−treatedcondition […]

Assay [3] relates to is-octβ2R Y332^7.43A mutant. As to the kind of experiment: TGFα shedding assay, mutant Y332^7.43A. It is filed as cell-based, Ixodes scapularis. Conditions: Table S6. As to the method: as §1, §4
Assay [4] concerns the target T2, is-octβ2R I62^1.43T mutant (Ixodes scapularis, UniProt A0ACM8E5E8, I41T).
T2 sequence (A0ACM8E5E8 1-384 I41T): T1 sequence (A0ACM8E5E8 1-384 T39P) with P39T, I41T
The assay can be described thus: TGFα shedding assay, amitraz-resistant mutant I62^1.43T. It is filed as cell-based. Conditions: Table S4. As to the method:
as §1, §2, §3

The subject of assay [5] is is-octβ2R D110^3.32N mutant. As to the kind of experiment: TGFα shedding assay, mutant D110^3.32N. It is filed as cell-based, Ixodes scapularis. Conditions: Table S6. As to the method:
as §1, §4

The target in assay [6] is is-octβ2R F304^6.52A mutant (Ixodes scapularis, UniProt A0ACM8E5E8, F304A). The assay can be described thus: TGFα shedding assay, mutant F304^6.52A. It is filed as cell-based. Conditions: Table S6. As to the method:
as §1, §4

Assay [7] deals with is-octβ2R I118^3.40A mutant. As to the kind of experiment: TGFα shedding assay, mutant I118^3.40A. It is filed as cell-based, Ixodes scapularis. Conditions: Table S6. The method, then: as §1, §4
Assay [8] deals with is-octβ2R Y307^6.55A mutant. As to the kind of experiment: TGFα shedding assay, mutant Y307^6.55A. It is filed as cell-based, Ixodes scapularis. As to conditions: Table S6. The method, then:
as §1, §4

Assay [9] has as its system is-octβ2R F189^45.52A mutant. As to the kind of experiment: TGFα shedding assay, mutant F189^45.52A. The class given is cell-based, Ixodes scapularis. Conditions: Table S6. As to the method:
as §1, §4

The subject of assay [10] is is-octβ2R Y195^5.38A mutant. The assay can be described thus: TGFα shedding assay, mutant Y195^5.38A. It is filed as cell-based, Ixodes scapularis. As to conditions: Table S6. The method, then:
as §1, §4

The subject of assay [11] is is-octβ2R F303^6.51A mutant. The assay can be described thus: TGFα shedding assay, mutant F303^6.51A. The class given is cell-based, Ixodes scapularis. As to conditions: Table S6. The method, then:
as §1, §4

In assay [12] the test system is is-octβ2R W300^6.48A mutant. As to the kind of experiment: TGFα shedding assay, mutant W300^6.48A. The class given is cell-based, Ixodes scapularis. Conditions: Table S6. The method, then: as §1, §4
Assay [13] relates to is-octβ2R S199^5.42A mutant. As to the kind of experiment: TGFα shedding assay, mutant S199^5.42A. It is filed as cell-based, Ixodes scapularis. As to the method: as §1, §2, §3
In assay [14] the target is T3, is-octβ2R Y215^5.58H mutant (Ixodes scapularis, UniProt A0ACM8E5E8, Y215H).
T3 sequence (A0ACM8E5E8 1-384 Y215H): T1 sequence (A0ACM8E5E8 1-384 T39P) with P39T, Y215H
As to the kind of experiment: TGFα shedding assay, amitraz-resistant mutant Y215^5.58H. The class given is cell-based. As to the method: as §1, §2, §3

The test system of assay [15] is is-octβ2R Y215^5.58H mutant. The assay is described as above. It is filed as cell-based, Ixodes scapularis. Conditions: versus wild type. As to the method:
as §1, §2, §3

Structures are written as SMILES. Where a chain is given by its changes, count along the chain named. Entries after “also recorded” stand apart in the source; their conditions may differ.

In general, EC50 refers to the concentration at which the effect is half-maximal. Read a high EC50 as a need for much substance. In the case of `CN/C=N/c1ccc(C)cc1C` [DPMF, N-2,4-dimethylphenyl-N′-methylformamidine], the EC50 in assay [1] is 7.94 nM; in assay [4], 2 nM; in assay [6], 63.1 nM; in assay [14], 6.31 nM. Further, the logEC50 result in assay [2] is recorded as “no activity”; in assay [3], “signal observed only at a concentration of 10^−5 M”; in assay [5] it was “no activity”; in assay [7] it was “no activity”; in assay [8] it was “no activity”; in assay [9] it was “no activity”. Moreover, the logEC50 entry in assay [10] is “no activity”; in assay [11], “no activity”; in [12], “no activity”; in assay [13] (Table S6) it was “signal observed only at 10-5 M; also recorded: signal observed only at 10^−5 M”. Besides, in [15], the “change of EC50 by the Y215^5.58H mutation” value was “unaffected”. The “reduction of maximal response (Emax) by the Y215^5.58H mutation” value in [15] is approximately 50%.
On to `NCC(O)c1ccc(O)cc1` (stereo not drawn) [Octopamine, octopamine], for which the EC50 is 10 nM in assay [1], 5.01 nM in assay [4], 398 nM in assay [6] and 15.8 nM in [14]. The logEC50 entry in assay [2] is on record as “no activity”; in assay [3], “signal observed only at 10-5 M”; in assay [5], “no activity”; in [7], “no activity”; in [8] it was “no activity”; in assay [9], “no activity”. In addition, the logEC50 entry is “no activity” in assay [10]; “no activity” in [11]; “no activity” in assay [12]; “signal observed only at 10-5 M” in assay [13] (Table S6); “signal observed only at 10^−5 M” in [13] (Table S6, listed as octopamine). The “change of EC50 by the Y215^5.58H mutation” value in assay [15] came out at 4 fold. Further, the “reduction of maximal response (Emax) by the Y215^5.58H mutation” value in [15] is recorded as approximately 50%.

The record behind these values is paper PMC12696353, “Structural insights into endogenous agonist selectivity of aminergic receptors from the octopamine β2 receptor” (PNAS Nexus, 2025).
